Where two headings read alike, the source gives them in different places.
Columns and labels:
[1] = tested on: FXR-UAS-bla HEK293T cells; assay: Cell viability assay (CellTiter Glo) in the same well as FXR-bla; conditions: for IC50: read-out: Cytotoxicity IC50
human FXR [2] = target: T1, human FXR (Homo sapiens, UniProt Q96RI1); assay: FXR-bla reporter gene assay, agonist mode (qHTS); conditions: for FXR agonist EC50: Table S3, FXR-active drugs; for FXR agonist mode EC50 / EC50: Table S1, primary screening; for FXR agonist activity: FXR-bla assay; for EC50: read-out: FXR agonist mode EC50
human FXR [3] = target: T1, human FXR; assay: FXR-bla reporter gene assay, antagonist mode (CDCA-induced transactivation); conditions: for FXR antagonist activity: FXR-bla assay
[4] = Table S1, primary screening, 50 µM CDCA

T1 sequence (Q96RI1 with tags, fused parts or gaps limits assumed): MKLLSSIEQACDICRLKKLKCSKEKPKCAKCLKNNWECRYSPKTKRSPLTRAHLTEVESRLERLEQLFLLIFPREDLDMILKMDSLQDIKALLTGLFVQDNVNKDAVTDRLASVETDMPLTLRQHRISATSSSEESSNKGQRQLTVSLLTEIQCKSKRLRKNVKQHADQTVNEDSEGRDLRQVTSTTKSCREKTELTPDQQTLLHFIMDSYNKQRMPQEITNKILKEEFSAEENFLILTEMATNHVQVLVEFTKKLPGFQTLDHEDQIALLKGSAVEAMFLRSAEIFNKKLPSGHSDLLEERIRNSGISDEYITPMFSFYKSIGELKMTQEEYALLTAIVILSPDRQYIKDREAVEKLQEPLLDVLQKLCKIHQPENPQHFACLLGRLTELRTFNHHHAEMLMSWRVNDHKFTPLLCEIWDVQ

Compound: C#C[C@]1(O)CC[C@H]2[C@@H]3CCc4cc(O)ccc4[C@H]3CC[C@@]21C [Ethinylestradiol]
- Cytotoxicity Efficacy ([1]; Table S1, primary screening): 36 ± 47%
- Cytotoxicity Efficacy ([1]; Table S3): 36 ± 47%

Compound: CC[C@]1(O)CC[C@H]2[C@@H]3CCC4=CCCC[C@@H]4[C@H]3CC[C@@]21C [Ethylestrenol]
- FXR agonist EC50 (human FXR [2]): Inactive
- FXR antagonist Efficacy (human FXR [3]): 66 ± 11%

Compound: CN1CC[C@H](c2c(O)cc(O)c3c(=O)cc(-c4ccccc4Cl)oc23)[C@H](O)C1 [Flavopiridol]
- Cell viability IC50 ([1]; Table 1, mean ± SD of 3 experiments): Inactive

Compound: CC(C)[C@H](Nc1ccc(C(F)(F)F)cc1Cl)C(=O)OC(C#N)c1cccc(Oc2ccccc2)c1 (stereo partly drawn) [Fluvalinate]
- FXR agonist mode EC50 (human FXR [2]): Inactive
- FXR antagonist mode Efficacy (human FXR [3]): 53 ± 3
- IC50 (human FXR [3]; FXR antagonist mode IC50): 30.3 ± 12 µM
- Cytotoxicity IC50 ([1]; Table S1, primary screening): Inactive

Compound: C[C@]12CC[C@@H]3c4ccc(O)cc4C[C@@H](CCCCCCCCC[S+]([O-])CCCC(F)(F)C(F)(F)F)[C@H]3[C@@H]1CC[C@@H]2O (stereo partly drawn) [Fulvestrant]
- Cytotoxicity IC50 ([1]; Table S1, primary screening): Inactive

Compound: CC(C)c1onc(-c2c(Cl)cccc2Cl)c1COc1ccc(/C=C/c2cccc(C(=O)O)c2)c(Cl)c1 [GW4064]
- Cytotoxicity IC50 ([1]; Table S1, primary screening): Inactive

Compound: CC[C@H](C)[C@H]1O[C@]2(CC[C@@H]1C)C[C@@H]1C[C@@H](C/C=C(\C)[C@@H](O[C@H]3C[C@H](OC)[C@@H](O[C@H]4C[C@H](OC)[C@@H](O)[C@H](C)O4)[C@H](C)O3)[C@@H](C)/C=C/C=C3\CO[C@@H]4[C@H](O)C(C)=C[C@@H](C(=O)O1)[C@]34O)O2 [Ivermectin B1a]
- Cytotoxicity Efficacy ([1]; Table S1, primary screening): 124 ± 6%
- Cytotoxicity Efficacy ([1]; Table S3): 124 ± 6%
- IC50 ([1]; Table S1, primary screening): 14.1 ± 2.63 µM

Compound: COC(=O)C1=C(C)NC(C)=C(C(=O)OC(C)(C)CN(C)CCC(c2ccccc2)c2ccccc2)C1c1cccc([N+](=O)[O-])c1 (stereo not drawn) [Lercanidipine]
- FXR agonist mode EC50 (human FXR [2]): Inactive
- IC50 (human FXR [3]): 15.5 ± 9.59 µM
- FXR antagonist Efficacy (human FXR [3]; Table S3, 50 µM CDCA): -71 ± 10%
- Cytotoxicity IC50 ([1]; Table S1, primary screening): Inactive

Compound: CO[C@@]12[C@H](COC(N)=O)C3=C(C(=O)C(C)=C(N)C3=O)N1C[C@@H]1N[C@@H]12 [Mitomycin C]
- FXR agonist EC50 (human FXR [2]): Inactive
- FXR antagonist Efficacy (human FXR [3]; Table S3, 50 µM CDCA): 62 ± 4%

Compound: CO/N=C1\C[C@]2(C[C@@H]3C[C@@H](C/C=C(\C)C[C@@H](C)/C=C/C=C4\CO[C@@H]5[C@H](O)C(C)=C[C@@H](C(=O)O3)[C@]45O)O2)O[C@H](/C(C)=C/C(C)C)[C@H]1C [Moxidectin, moxidectin]
- FXR agonist activity (human FXR [2]): did not show agonist activity

Compound: COc1cccc2c1C(=O)c1c(O)c3c(c(O)c1C2=O)C[C@@](O)(C(=O)CO)C[C@@H]3O[C@H]1C[C@H](N2CCO[C@H](OC)C2)[C@H](O)[C@H](C)O1 [Nemorubicin]
- Cell viability IC50 [1]: Inactive

Compound: COC(=O)C1=C(C)NC(C)=C(C(=O)OC)C1c1ccccc1[N+](=O)[O-] [Nifedipine]
- FXR agonist mode EC50 (human FXR [2]): Inactive
- FXR antagonist activity (human FXR [3]; CDCA-induced): antagonists
- IC50 (human FXR [3]; IC50, FXR-bla antagonist mode, primary screening, CDCA-induced): 34 µM
- FXR antagonist mode Efficacy (human FXR [3]; [4]): 66 ± 46%

Compound: COC(=O)C1=C(C)NC(C)=C(C(=O)OCC(C)C)C1c1ccccc1[N+](=O)[O-] (stereo not drawn) [Nisoldipine]
- FXR agonist mode EC50 (human FXR [2]): Inactive
- IC50 (human FXR [3]): 32.6 ± 20.2 µM
- FXR antagonist activity (human FXR [3]; CDCA-induced): antagonists
- FXR antagonist mode Efficacy (human FXR [3]; [4]): 73 ± 29%
- Cytotoxicity IC50 ([1]; Table S1, primary screening): Inactive

Compound: CCCCc1ccc2[nH]c(NC(=O)OC)nc2c1 [Parbendazole]
- FXR agonist mode EC50 (human FXR [2]): Inactive
- FXR antagonist mode Efficacy (human FXR [3]): 43 ± 3%
- IC50 (human FXR [3]; FXR antagonist mode IC50): 0.16 ± 0.14 µM
- Cytotoxicity IC50 ([1]; Table S1, primary screening): Inactive

Compound: CC(C)=CC1C(C(=O)OCc2cccc(Oc3ccccc3)c2)C1(C)C (stereo not drawn) [Phenothrin]
- FXR agonist mode EC50 (human FXR [2]): Inactive
- FXR antagonist mode Efficacy (human FXR [3]): 27 ± 7
- IC50 (human FXR [3]): 25.4 ± 11.8 µM
- Cytotoxicity IC50 ([1]; Table S1, primary screening): Inactive

Compound: CCC1=C[C@@H]2CN(C1)Cc1c([nH]c3ccccc13)[C@@](C(=O)OC)(c1cc3c(cc1OC)N(C)[C@H]1[C@@](O)(C(=O)OC)[C@H](OC(C)=O)[C@]4(CC)C=CCN5CC[C@]31[C@@H]54)C2 [Vinorelbine]
- Cytotoxicity Efficacy ([1]; Table S3): 41 ± 5%

Compound: AM580
- FXR agonist mode Efficacy (human FXR [2]): 68 ± 37
- FXR agonist activity (human FXR [2]): selectively induced transactivation of FXR
- EC50 (human FXR [2]): 45.4 ± 3.07 µM
- FXR antagonist mode IC50 (human FXR [3]): Inactive
- Cytotoxicity IC50 ([1]; Table S1, primary screening): Inactive

Compound: Emamectin
- FXR agonist mode Efficacy (human FXR [2]): 56 ± 26%
- EC50 (human FXR [2]): 24.6 ± 8.97 µM
- FXR antagonist mode Efficacy (human FXR [3]): 64 ± 19%
- IC50 (human FXR [3]; read-out: FXR antagonist mode IC50): 5.81 ± 2.68 µM
- Cytotoxicity Efficacy ([1]; Table S1, primary screening): 116 ± 14%
- IC50 ([1]; Table S1, primary screening): 7.54 ± 1.29 µM

Source: article PMC4894417, “Quantitative High-Throughput Profiling of Environmental Chemicals and Drugs that Modulate Farnesoid X Receptor” (Scientific Reports, 2014)
